In brackets after ≈: the same amount, converted by molar mass. Where two headings read alike, the source gives them in different places. Residues, ends and D or L forms follow the SMILES beside them. No end group written: not given here.

Data set [1] has as its system Acinetobacter baumannii pre-formed biofilm. Description: microbe, parasite or virus in culture. Particulars: for degradation of pre-formed biofilm: A. baumannii biofilm pre-formed 24 h, 24 h of treatment, Crystal Violet OD550; for MBC: A. baumannii biofilm pre-formed 24 h in MHB. The format is cell-based. On the procedure: For the biofilm eradication assay the difference was at the beginning of the experiments when bacteria were pre-cultured for 24 h or 72 h in MHB with a starting OD600 = 0.01. Then bacterial suspensions were removed from the wells followed by washing three times with 200 µl of 1/2 MHB. Subsequently fresh 1/10 MHB was added to the wells containing the respective dilutions of NCR169C17–38, meropenem or polymixin B and the treatment lasted either 3 h or 24 h. Experiments were done in three biological replicates.
To assess whether the NCR169C17–38 peptide or the tested antibiotics could eradicate pre-formed biofilms, A. baumannii was first cultured in MHB for 24 h, then treated with NCR169C17–38, meropenem or polymyxin B for either 3 h or 24 h, using the same concentration range as in the previous experiment. Both bacterial survival within the pre-formed biofilm and the amount of residual biofilm were assessed. […] In contrast, neither of the two antibiotics completely eliminated the bacteria within the tested concentration range. […] This 24 h of treatment was repeated on mature biofilm (pre-formed for 72 h) and the results were very similar (Supplementary Fig. 1.).

The next data set concerns E. coli. Description: microbe, parasite or virus in culture. The following applies: for FBC-A: (MBC of Drug A in combination)/(MBC of Drug A alone), combination with NCR169C17–38 (Drug B), checkerboard; for FBC-A / FBC-B / FBC / Action / FBC-A (µM): concentration of Drug A for the indicated action / FBC-B (µM): concentration of Drug B for the indicated action: E. coli; for FBC-A / FBC-A (µM): concentration of Drug A for the indicated action: 3 h 37 °C; for FBC-B: (MBC of NCR169C17–38 in combination)/(MBC alone), value refers to NCR169C17–38 (Drug B) combined with the Drug A; for MBC: Escherichia coli, read-out: Drug A MBC; for FBC: FBC index = FBC-A + FBC-B, Drug A combined with NCR169C17–38; for Action: interaction of Drug A with NCR169C17–38 by FBC index; for FBC-A (µM): concentration of Drug A for the indicated action / FBC-B (µM): concentration of Drug B for the indicated action: value in brackets; for FBC-A (µM): concentration of Drug A for the indicated action: Drug A in combination with NCR169C17–38, checkerboard; for FBC-B (µM): concentration of Drug B for the indicated action: concentration of NCR169C17–38 (Drug B) combined with Drug A. On the procedure:
Streptomycin was tested at concentrations ranging from 25 μM to 0.4 μM, meropenem from 200 μM to 3.1 μM, and polymyxin B from 6.3 μM to 0.1 μM. NCR335N1–19 was tested in a concentration range from 3.1 μM to 0.05 μM, while NCR335C13–33 from 12.5 μM to 0.2 μM. […] The initial E. coli density in each well were adjusted to OD600 = 0.01 corresponding to ∼10^6 bacteria/ml. […] The effectiveness of combination treatments was measured using the fractional bactericidal concentration (FBC) index, which is a metric used to assess the interaction between antimicrobial agents, determining whether their combined effect is synergistic, additive, or antagonistic. First, the MBC values of polymyxin B, meropenem, streptomycin, NCR335N1–19, and NCR335C13–33 were determined in E. coli. Subsequently, their combinations with NCR169C17–38 were examined using the FBC index. FBC = FBCA + FBCB. FBCA = (MBCA in combination) / (MBCA alone); FBCB = (MBCB in combination) / (MBCB alone). Experiments were done in three biological replicates.
The use of multiple antimicrobial agents can simultaneously target different physiological pathways in microbial cells, reducing the likelihood of resistance development and increasing treatment efficacy. To explore this strategy, we assessed the combined antibacterial effects of the NCR169C17–38 peptide with several antibiotics - specifically polymyxin B, meropenem, and streptomycin - against E. coli. […] Combination treatments were then performed using the standard checkerboard titration method, with each agent co-administered with NCR169C17–38.

The test system of a further data set is Acinetobacter baumannii. The experiment in a line: microbe, parasite or virus in culture. The following applies: A. baumannii; for MBC: 24 h of treatment in MHB (method: 1/10 MHB), detected at the end of the biofilm inhibition test, read-out: MBC, Inhibition test after 24 h. The format is cell-based. On the procedure: For the biofilm inhibition assay the antimicrobial activity test was done in 1/10 MHB using A. baumannii treated with the respective dilutions of NCR169C17–38, meropenem or polymixin B for 24 h. After taking the 5 μl samples at the end of the treatment and placed on LB agar to detect bacterial growth, the rest of the grown bacterial suspensions were discarded from the plate and the remaining biofilm on the walls of the plate was then washed three times with sterile water and stained using 1 % Crystal Violet (CV) for 15 min to visualize the produced biofilm. The non-adherent CV dye was then removed by washing with water three times. The plate was left for complete drying, then the biofilm-bound CV dye was dissolved in 200 µl of 30 % acetic-acid with shaking over 15 min. The absorbance was measured at OD550 using a HIDEX Plate Reader (Hidex Sense Microplate Reader with Plate Reader Software version 5064, Hidex, Finland). All measurements were repeated three times.
We examined the capacity of NCR169C17–38 to inhibit biofilm formation by Acinetobacter baumannii, a pathogen well known for its robust biofilm production and high level of antibiotic resistance. […] Additionally, at the end of the experiment we determined the quantity of the biofilm and thereby evaluated their ability to inhibit biofilm formation during culturing the bacteria in the presence of different concentrations of the agents (Fig. 1.A). We tested concentrations of NCR169C17–38 ranging from 25 μM to 0.4 μM, meropenem from 100 μM to 1.6 μM and polymyxin B from 3.1 μM to 0.05 μM.

The format of data set [2] is physicochemical. Particulars: for solubility / visible turbidity upon peptide addition: pH 7.4.

In the case of `C[C@@H](O)[C@H]1C(=O)N2C(C(=O)O)=C(S[C@@H]3CN[C@H](C(=O)N(C)C)C3)[C@H](C)[C@H]12` [Meropenem], the “degradation of pre-formed biofilm” value in data set [1] is “successful even at sub-MBC level”. In addition, the MBC in data set [1] (Acinetobacter baumannii, 3 h treatment (method: 1/10 MHB), read-out: MBC, Eradication test after 3 h) was greater than 100 µM. For the same compound, the MBC in data set [1] (Acinetobacter baumannii, 24 h treatment (method: 1/10 MHB), read-out: MBC, Eradication test after 24 h) was greater than 100 µM. Further, in the data set on E. coli, the FBC-A worked out at 0.25, the FBC-B is on record as 0.25, the FBC is listed as 0.5 and the Action result is reported as “Synergism (< 0.5: synergism)”. In addition, in the data set on E. coli, the “FBC-A (µM): concentration of Drug A for the indicated action” value (from here on “FBC-A (µM): concentration”) amounted to 50 µM and the “FBC-B (µM): concentration of Drug B for the indicated action” value (“FBC-B (µM): concentration of Drug B” below) was 0.4 µM. The MBC with E. coli (3 h) is 200 µM. The “inhibition of biofilm formation (Crystal Violet, OD550)” value with Acinetobacter baumannii (24 h treatment, NCR169C17–38 25-0.4 μM, meropenem 100-1.6 μM, polymyxin B 3.1-0.05 μM) was “remaining effective even at lower doses”. The MBC in the data set on Acinetobacter baumannii (Acinetobacter baumannii) was found to be 50 µM (≈ 19.2 µg/mL).

For `CC[C@H](C)[C@H](NC(=O)CNC(=O)[C@H](CS)NC(=O)[C@H](Cc1ccc(O)cc1)NC(=O)[C@H](CCCCN)NC(=O)[C@@H](NC(=O)[C@H](Cc1c[nH]cn1)NC(=O)CNC(=O)[C@@H](NC(=O)[C@H](CC(=O)O)NC(=O)[C@@H](N)CCC(=O)O)[C@@H](C)CC)[C@@H](C)CC)C(=O)N[C@H](C(=O)N[C@@H](CC(=O)O)C(=O)N[C@@H](CC(=O)O)C(=O)N[C@@H](CS)C(=O)N[C@@H](Cc1ccc(O)cc1)C(=O)N[C@@H](CCCCN)C(=O)N[C@@H](CO)C(=O)N[C@@H](CCCCN)C(=O)N[C@@H](CCCCN)C(=O)N1CCC[C@H]1C(=O)N[C@@H](CC(C)C)C(=O)N[C@@H](Cc1ccccc1)C(=O)N[C@@H](CCCCN)C(=O)N[C@H](C(=O)N[C@@H](Cc1c[nH]c2ccccc12)C(=O)N[C@@H](CCCCN)C(=O)N[C@@H](CS)C(=O)N[C@H](C(=O)N[C@@H](CCC(=O)O)C(=O)N[C@@H](CC(N)=O)C(=O)N[C@H](C(=O)N[C@@H](CS)C(=O)N[C@H](C(=O)N[C@@H](CC(C)C)C(=O)N[C@@H](Cc1c[nH]c2ccccc12)C(=O)N[C@@H](Cc1ccc(O)cc1)C(=O)N[C@@H](CCCCN)C(N)=O)C(C)C)C(C)C)C(C)C)[C@@H](C)CC)C(C)C` [NCR169] (H-EDIGHIKYCGIVDDCYKSKKPLFKIWKCVENVCVLWYK-NH2), the “solubility / visible turbidity” value in data set [2] (pH 5.8) is “eliminating visible turbidity”. Moreover, in data set [2], the “solubility / visible turbidity upon peptide addition” value is listed as “visible white turbidity”.

Take `CC[C@H](C)[C@H](NC(=O)[C@@H]1CCCN1C(=O)[C@@H](NC(=O)[C@H](CS)NC(=O)[C@H](Cc1ccc(O)cc1)NC(=O)[C@H](CO)NC(=O)[C@H](CCCCN)NC(=O)[C@H](CCCNC(=N)N)NC(=O)[C@H](CS)NC(=O)[C@H](CCCNC(=N)N)NC(=O)[C@@H](NC(=O)[C@H](CC(N)=O)NC(=O)[C@H](C)NC(=O)[C@H](CCCNC(=N)N)NC(=O)[C@H](CCCNC(=N)N)NC(=O)[C@H](CC(C)C)NC(=O)[C@H](CCCCN)NC(=O)[C@@H]1CCCN1C(=O)[C@H](CS)NC(=O)[C@H](CC(=O)O)NC(=O)[C@@H](N)CCCCN)C(C)C)C(C)C)C(N)=O` [NCR335C13–33] (H-KDCPKLRRANVRCRKSYCVPI-NH2; N-terminus and C-terminus assumed): in the data set with E. coli (3 h), the “Drug A MBC” value turned out to be 12.5 µM. In the data set with E. coli, the FBC-A is 0.5, the FBC-B is 0.03, the FBC was determined as 0.5 and the Action entry is reported as “Synergism (< 0.5: synergism)”. Further, in the data set with E. coli, the “FBC-A (µM): concentration” value came to 6.25 µM and the “FBC-B (µM): concentration of Drug B” value was found to be 0.048 µM.

With `[H]/N=C(/N)N[C@H]1[C@H](O)[C@@H](O)[C@H](O[C@@H]2O[C@@H](C)[C@](O)(C=O)[C@H]2O[C@@H]2O[C@@H](CO)[C@H](O)[C@@H](O)[C@@H]2NC)[C@@H](N/C(N)=N\[H])[C@@H]1O` [Streptomycin], in the data set on E. coli, the FBC-A is 0.5, the FBC-B turned out to be 0.5, the FBC is reported as 1 and the Action entry is reported as “Additive (0.5 < FBC < 1.0: additive)”. Further, the “FBC-B (µM): concentration of Drug B” value with E. coli turned out to be 0.8 µM. Moreover, in the data set with E. coli (3 h), the MBC came out at 3.12 µM.

Regarding “EDIGHIKYSGIVDDSYKSKKPLFKIWKSVENVSVLWYK-NH2 [NCR169-C9,15,28,33/S]”, the “solubility / visible turbidity upon peptide addition” value in data set [2] is given as “no visible turbidity”.

Turning to Polymyxin B, the “degradation of pre-formed biofilm” value in data set [1] was “required at least their MBC or higher concentrations”. For the same compound, the MBC in data set [1] (3 h treatment (method: 1/10 MHB), read-out: MBC, Eradication test after 3 h) is given as greater than 3.2 µM. Also, the MBC in data set [1] (24 h treatment (method: 1/10 MHB), read-out: MBC, Eradication test after 24 h) is listed as greater than 3.2 µM. Further, in data set [1] (A. baumannii, as stated in the abstract), the “eradication of pre-formed biofilms at sub-MBC concentration” value is “not observed”. In addition, in the data set with E. coli, the FBC-A came out at 0.125, the FBC-B was 0.25, the FBC is reported as 0.38 and the Action result is “Synergism (< 0.5: synergism)”. Also, in the data set with E. coli, the “FBC-A (µM): concentration” value amounted to 0.1 µM and the “FBC-B (µM): concentration of Drug B” value is given as 0.4 µM. Moreover, in the data set with E. coli (Drug A alone, E. coli ~10^6 bacteria/ml, MHB/PPB mixture, 3 h at 37 °C, plated on LB agar, three biological replicates), the “Drug A MBC” value was determined as 0.8 µM. Moreover, the MBC with Acinetobacter baumannii was determined as 0.8 µM.

As for RLNTTFRPLNFKMLRFWGQ-NH2 [NCR335N1–19], in the data set with E. coli (3 h), the “Drug A MBC” value is on record as 3.125 µM. Besides, in the data set with E. coli, the FBC-A turned out to be 0.5, the FBC-B was found to be 0.01, the FBC is 0.5 and the Action entry is “Synergism (< 0.5: synergism)”. In addition, in the data set on E. coli, the “FBC-A (µM): concentration” value is reported as 1.6 µM.

The record behind these values is paper PMC12811501, “A plant-derived antimicrobial peptide with multiple mechanisms of action exhibiting antibacterial and antibiofilm activities comparable to or superior to polymyxin B” (Current Research in Microbial Sciences, 2025).
